Results: patent US20220185832A1, “CD73 INHIBITORS” (BioArdis LLC, priority 2019, published 2022)

Tests used:
[1] = target: T1, Recombinant Human 5′-Nucleotidase (CD73) (Homo sapiens, UniProt P21589); experiment: CD73 Enzyme Assay; format: biochemical; settings: 0.5 nM human CD73, 30 μM AMP, PiColorLock phosphate detection, OD 635 nm; read-out: Potency (IC50)
T1 construct: CHO derived CD73 (Trp27-Lys547), with a C-terminal 6-His tag; 6-His (C); purchased R&D 5795-EN; host or cells: CHO
T1 sequence (P21589 27-547): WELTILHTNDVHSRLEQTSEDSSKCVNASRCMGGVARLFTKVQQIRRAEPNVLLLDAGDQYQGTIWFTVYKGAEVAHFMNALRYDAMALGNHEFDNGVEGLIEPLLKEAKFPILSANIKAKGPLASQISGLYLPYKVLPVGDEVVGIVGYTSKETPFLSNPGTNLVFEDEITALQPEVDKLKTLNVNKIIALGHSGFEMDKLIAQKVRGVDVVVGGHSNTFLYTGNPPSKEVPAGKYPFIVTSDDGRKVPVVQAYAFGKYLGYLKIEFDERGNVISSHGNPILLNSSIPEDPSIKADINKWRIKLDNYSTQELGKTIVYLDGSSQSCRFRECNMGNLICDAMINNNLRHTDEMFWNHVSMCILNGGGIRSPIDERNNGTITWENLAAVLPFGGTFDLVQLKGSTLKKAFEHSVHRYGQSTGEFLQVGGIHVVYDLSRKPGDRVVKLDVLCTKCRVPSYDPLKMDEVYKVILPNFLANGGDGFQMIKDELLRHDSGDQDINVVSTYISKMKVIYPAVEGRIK
Procedure, shortened: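 CHO-derived human CD73 (Trp27-Lys547, C-terminal His tag; 0.5 nM) preincubated with compound 15 min at 25° C in Tris pH 7.5 with MgCl2 and Tween-20. Reaction with 30 μM AMP ran 20 min at 37° C; released phosphate read by malachite green at 635 nm, IC50 from 4-parameter logistic fit.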

[2] = target: T2, Cell surface CD73 of U87 MG human glioblastoma cells (Homo sapiens, UniProt P21589); experiment: CD73 Cellular Assay; format: cell-based; settings: 5000 cells per well, 30 μM AMP, PiColorLock phosphate detection in supernatant, read-out: Potency (IC50)
T2 construct: Cell surface CD73 catalyzes the conversion of adenosine monophosphate (AMP) to adenosine and inorganic phosphate; endogenous in cells; host or cells: U87 MG human glioblastoma cells
T2 sequence (P21589 27-549): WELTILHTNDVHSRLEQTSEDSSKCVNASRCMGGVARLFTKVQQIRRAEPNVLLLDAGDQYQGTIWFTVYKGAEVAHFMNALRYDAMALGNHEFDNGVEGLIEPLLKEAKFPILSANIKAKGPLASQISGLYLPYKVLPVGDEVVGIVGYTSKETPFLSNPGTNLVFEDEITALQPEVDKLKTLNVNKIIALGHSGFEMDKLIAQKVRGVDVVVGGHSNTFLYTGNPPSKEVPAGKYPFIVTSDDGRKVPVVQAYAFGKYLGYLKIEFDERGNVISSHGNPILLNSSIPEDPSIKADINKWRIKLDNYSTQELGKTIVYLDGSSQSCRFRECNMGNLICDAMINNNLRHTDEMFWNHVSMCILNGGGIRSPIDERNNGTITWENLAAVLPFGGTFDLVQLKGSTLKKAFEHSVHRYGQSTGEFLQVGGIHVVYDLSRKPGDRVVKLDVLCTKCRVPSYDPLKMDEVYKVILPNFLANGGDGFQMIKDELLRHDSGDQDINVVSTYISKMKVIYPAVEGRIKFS
Procedure: Cell surface CD73 catalyzes the conversion of adenosine monophosphate (AMP) to adenosine and inorganic phosphate. U87 MG human glioblastoma cells express high level of CD73. Cells are treated with compounds in a 96-well assay plate and supernatants are collected into a 384-well detection plate. The concentration of inorganic phosphate (Pi) in the supernatants is determined using the phosphate detection reagent, PiColorLock™ (Innova Bioscience, Cat #303-0125) following the manufacturer's instructions.
Briefly, on the day of the assay, U87 MG cells were harvested and resuspended in assay buffer which consisted of 20 mM HEPES, pH=7.4, 137 mM NaCl, 5.4 mM KCl, 1.3 mM CaCl2, 4.2 mM NaHCO3 and 0.1% glucose. To test the effect of compounds on cellular CD73 enzymatic activity, 500 nL/well of compounds dissolved in DMSO were added to a 96-well TC-treated microplate (Corning #3599). Next, 80 μL/well of U87 MG cells in assay buffer were added to assay plate. After 30 minutes of incubation in an atmosphere of 5% CO2 at 37° C., 20 μL/well of 150 μM AMP (Adenosine 5′-monophosphate monohydrate, Sigma, Cat #01930) in assay buffer was added to assay plate. Final assay conditions consisted of 5000 cells per well in 0.5% DMSO and 30 μM AMP substrate. After 50 minutes of incubation in an atmosphere of 5% CO2 at 37° C., 50 μL/well of supernatant was transferred to the 384-well detection plate (Corning® NBSTM 384 well plates, Cat #3640). Meanwhile “Gold mix” was prepared shortly before use by adding 1/100 volume of accelerator to the PiColorLock™ Gold reagent. 12 μL/well of the “Gold mix” was added to detection plate containing 50 μL/well of supernatant and incubated at 25° C. for 5 minutes. 5 μL/well stabilizer was added to the detection plate and incubated at 25° C. for 30 minutes. The absorbance at 635 nm was measured on a Spark 10M instrument (TECAN).
The percent (%) inhibition at each concentration of a compound was calculated relative to the OD value in the Max and Min control wells contained within each assay plate. The Max control wells contained cells and substrate as 0% inhibition, and the Min control wells only contained cells as 100% inhibition. The concentrations and percent inhibition values for a test compound are plotted and the concentration of the compound required to achieve 50% inhibition (IC50) was determined with a four-parameter logistic dose response equation.

IC50 [1] [nM] | IC50 [2] [nM] | SMILES
< 10 | < 10 | O=P(O)(O)CP(=O)(O)OC[C@H]1O[C@@H](c2ccc3c(NCc4ccccc4Cl)nc(Cl)nc3c2)[C@H](O)[C@@H]1O [Compound 23, (((((2R,3S,4R,5S)-5-(2-chloro-4((2-chlorobenzyl)amino)quinazolin-7-yl)-3,4-dihydroxytetrahydrofuran-2-yl)methoxy)(hydroxy)phosphoryl)methyl)phosphonic acid]
< 10 | < 10 | O=P(O)(O)CP(=O)(O)OC[C@H]1O[C@@H](c2ccc3c(NC4CCc5ccccc54)nc(Cl)nc3c2)[C@H](O)[C@@H]1O (stereo partly drawn) [Compound 25, [({[(2R,3S,4R,5S)-5-[2-chloro-4-(2,3-dihydro-1H-inden-1-ylamino)quinazolin-7-yl]-3,4-dihydroxyoxolan-2-yl]methoxy}(hydroxy)phosphoryl)methyl]phosphonic acid]

Second part, the compound before the results:

SMILES | IC50 [1] [nM] | IC50 [2] [nM]
O=P(O)(O)CP(=O)(O)OC[C@H]1O[C@@H](c2ccc3c(NCC4CCCC(O)C4)nc(Cl)nc3c2)[C@H](O)[C@@H]1O (stereo partly drawn) [Compound 28, (((((2R,3S,4R,5S)-5-(2-chloro-4-(((3-hydroxycyclohexyl)methyl)amino)quinazolin-7-yl)-3,4-dihydroxytetrahydrofuran-2-yl)methoxy)(hydroxy)phosphoryl)methyl)phosphonic acid] | < 10 | 100 to 999
O=P(O)(O)CP(=O)(O)OC[C@H]1O[C@@H](c2ccc3c(NC4CCCCC4)nc(Cl)nc3c2)[C@H](O)[C@@H]1O [Compound 31, (((((2R,3S,4R,5S)-5-(2-chloro-4-(cyclohexylamino)quinazolin-7-yl)-3,4-dihydroxytetrahydrofuran-2-yl)methoxy)(hydroxy)phosphoryl)methyl)phosphonic acid] | < 10 | < 10
O=P(O)(O)CP(=O)(O)OC[C@H]1O[C@@H](c2ccc3c(NC4CCCC4)ncnc3c2)[C@H](O)[C@@H]1O [Compound 46, [({[(2R,3S,4R,5S)-5-[4-(cyclopentylamino)quinazolin-7-yl]-3,4-dihydroxyoxolan-2-yl]methoxy}(hydroxy)phosphoryl)methyl]phosphonic acid] | < 10 | > 1000
